Measurements as given in ChEMBL document CHEMBL5385872, “Design and syntheses of a bimolecular STING agonist based on the covalent STING antagonist” (Eur J Med Chem, 2023).
Activity calls are given as the source filed them. The calls are words filed in the database; no cut-off is given here.

Tests used:
[1] = test system: HT-1080; assay: Synergistic increase in […]-induced TBK1 phosphorylation in human HT-1080 cells by Western blot analysis; type: functional, cell-based
[2] = molecular target: Stimulator of interferon genes protein (Homo sapiens) (UniProt Q86WV6); assay: Agonist activity at STING in human HT-1080 cells assessed as increase in TBK1 phosphorylation at 2.5 to 20 uM measured after 5 hrs by Western blot analysis; type: cell-based; conditions: filed as agonist, dose 2.5-20 µM
[3] = molecular target: Stimulator of interferon genes protein (Homo sapiens) (UniProt Q86WV6); assay: Induction of STING-dependent gene expression in human HT-1080 cells assessed as IFNbeta mRNA expression at 20 uM incubated for 8 hrs by qRT-PCR analysis; type: cell-based; conditions: filed as agonist
[4] = test system: Herpes simplex virus unknown type; assay: Antiviral activity against HSV infected in human HT-1080 cells assessed as reduction viral protein ICP0 expression at 2.5 to 20 uM pretreated for 1 hr followed by infection measured after 18 hrs by Western blot analysis; type: functional, cell-based; conditions: dose 2.5-20 µM, time 19.0 hrs
[5] = molecular target: T1, Stimulator of interferon genes protein (Mus musculus) (UniProt Q3TBT3); assay: Agonist activity at STING in mouse embryonic fibroblast cells assessed as increase in TBK1 phosphorylation at 2.5 to 20 uM measured after 5 hrs by Western blot analysis; type: cell-based; conditions: MEF, filed as agonist, dose 2.5-20 µM
T1 sequence (whole entry): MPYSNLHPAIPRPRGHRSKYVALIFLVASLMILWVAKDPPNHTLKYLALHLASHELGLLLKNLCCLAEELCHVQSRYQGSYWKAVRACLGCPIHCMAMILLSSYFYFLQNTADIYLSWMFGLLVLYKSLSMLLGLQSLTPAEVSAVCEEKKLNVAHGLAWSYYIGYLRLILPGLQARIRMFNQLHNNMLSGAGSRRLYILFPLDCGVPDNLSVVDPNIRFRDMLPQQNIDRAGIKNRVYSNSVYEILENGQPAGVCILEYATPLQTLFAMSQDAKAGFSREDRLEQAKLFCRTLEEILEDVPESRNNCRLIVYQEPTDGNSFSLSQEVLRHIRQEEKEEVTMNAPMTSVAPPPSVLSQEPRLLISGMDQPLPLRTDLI

[6] = test system: RAW264.7; assay: Cytotoxicity against mouse RAW264.7 cells assessed as cell viability measured after 72 hrs by MTT assay; type: functional, cell-based; conditions: RAW264.7, 72 h
[7] = molecular target: T1, Stimulator of interferon genes protein (Mus musculus); assay: Induction of STING dimerization in mouse embryonic fibroblast cells at 2.5 to 20 uM measured after 5 hrs by Western blot analysis; type: cell-based; conditions: MEF, filed as agonist, dose 2.5-20 µM
[8] = molecular target: Stimulator of interferon genes protein (Homo sapiens) (UniProt Q86WV6); assay: Induction of wild type STING dimerization in human HeLa cells transfected with wild type STING at 10 uM measured after 5 hr by Western blot analysis; type: cell-based; conditions: filed as agonist
[9] = test system: Stimulator of interferon genes protein (Homo sapiens), Q86WV6 [C91S]; assay: Induction of oligomerization of STING C91S (unknown origin) mutant in human HeLa cells transfected with wild type STING assessed as intracellular puncta formation at 10 uM measured after 1 hr by DAPI staining based immunofluorescence microscopy; type: cell-based; conditions: filed as agonist
[10] = molecular target: Stimulator of interferon genes protein (Homo sapiens) (UniProt Q86WV6); assay: Induction of STING dimerization in human HT-1080 cells at 2.5 to 20 uM measured after 5 hrs by Western blot analysis; type: cell-based; conditions: filed as agonist, dose 2.5-20 µM
[11] = molecular target: T1, Stimulator of interferon genes protein (Mus musculus); assay: Induction of STING dimerization in mouse BMDM cells at 2.5 to 20 uM measured after 5 hrs by Western blot analysis; type: cell-based; conditions: filed as agonist, dose 2.5-20 µM
[12] = molecular target: Stimulator of interferon genes protein (Homo sapiens) (UniProt Q86WV6); assay: Induction of STING-dependent gene expression in human HT-1080 cells assessed as increase in ADU-S100 induced IFNbeta mRNA expression at 20 uM incubated for 8 hrs by qRT-PCR analysis; type: cell-based; conditions: filed as agonist
[13] = test system: HEK-293T; assay: Cytotoxicity against STING-deficient human 293T cells assessed as cell viability measured after 72 hrs by MTT assay; type: functional, cell-based
[14] = test system: HT-1080; assay: Synergistic increase in HSV infection-induced TBK1 phosphorylation in human HT-1080 cells by Western blot analysis; type: functional, cell-based
[15] = Antiviral activity against rhesus rotavirus assessed as inhibition of replication by qRT-PCR analysis; type: functional, Simian rotavirus A strain RRV
[16] = test system: Mus musculus; assay: Induction of immune-activation effect in wild type female BALB/c mouse assessed as increase in serum IFNbeta level at 15 to 30 mg/kg, ip measured after 24 to 48 hrs by ELISA relative to control; type: functional, organism-based; conditions: dose 15-30 mg/kg, time 24-48 hrs
[17] = molecular target: Stimulator of interferon genes protein (Homo sapiens) (UniProt Q86WV6); assay: Agonist activity at STING in human THP1 cells assessed as increase in TBK1 phosphorylation at 2.5 to 20 uM measured after 5 hrs by Western blot analysis; type: cell-based; conditions: THP-1, filed as agonist, dose 2.5-20 µM
[18] = molecular target: Stimulator of interferon genes protein (Homo sapiens) (UniProt Q86WV6); assay: Induction of wild type STING mediated TBK1 phosphorylation in human HeLa cells transfected with wild type STING at 10 uM measured after 5 hr by Western blot analysis; type: cell-based; conditions: filed as agonist
[19] = test system: Stimulator of interferon genes protein (Homo sapiens), Q86WV6 [C148A]; assay: Induction of STING C148A mutant (unknown origin) mediated TBK1 phosphorylation in human HeLa cells transfected with STING C148A mutant at 10 uM measured after 5 hr by Western blot analysis; type: cell-based; conditions: filed as agonist
[20] = molecular target: Stimulator of interferon genes protein (Homo sapiens) (UniProt Q86WV6); assay: Induction of STING dimerization in human THP1 cells at 2.5 to 20 uM measured after 5 hrs by Western blot analysis; type: cell-based; conditions: THP-1, filed as agonist, dose 2.5-20 µM
[21] = test system: RAW264.7; assay: Synergistic increase in HSV infection-induced TBK1 phosphorylation in mouse RAW264.7 cells by Western blot analysis; type: functional, cell-based
[22] = Antiviral activity against HSV infected in human HT-1080 cells assessed as reduction viral RNA expression pretreated for 1 hr followed by infection measured after 18 hrs by qRT-PCR analysis; type: functional, cell-based; conditions: Herpes simplex virus unknown type
[23] = test system: Stimulator of interferon genes protein (Homo sapiens), Q86WV6 [V113Q,G114Q,P115Q]; assay: Induction of STING V113Q/G114Q/P115Q mutant (unknown origin) mediated TBK1 phosphorylation in human HeLa cells transfected with STING C148A mutant at 10 uM measured after 5 hr by Western blot analysis; type: cell-based; conditions: filed as agonist
[24] = molecular target: Stimulator of interferon genes protein (Homo sapiens) (UniProt Q86WV6); assay: Induction of STING-dependent gene expression in human HT-1080 cells assessed as increase in diABZI induced IFNbeta mRNA expression at 20 uM incubated for 8 hrs by qRT-PCR analysis; type: cell-based; conditions: filed as agonist
[25] = test system: THP-1; assay: Effect on STING level in human THP1 cells at 2.5 to 20 uM incubated for 8 hrs by Western blot analysis; type: functional, cell-based; conditions: dose 2.5-20 µM
[26] = molecular target: T1, Stimulator of interferon genes protein (Mus musculus); assay: Agonist activity at STING in mouse BMDM cells assessed as increase in TBK1 phosphorylation at 2.5 to 20 uM measured after 5 hrs by Western blot analysis; type: cell-based; conditions: filed as agonist, dose 2.5-20 µM
[27] = test system: Vero; assay: Cytotoxicity against interferon production defective African green monkey Vero cells assessed as cell viability measured after 72 hrs by MTT assay; type: functional, cell-based; conditions: Chlorocebus sabaeus
[28] = molecular target: Stimulator of interferon genes protein (Homo sapiens) (UniProt Q86WV6); assay: Agonist activity at STING in human HT-1080 cells assessed as increase in ADU-S100-induced TBK1 phosphorylation at 2.5 to 20 uM measured after 5 hrs by Western blot analysis; type: cell-based; conditions: filed as agonist, dose 2.5-20 µM
[29] = test system: SARS-CoV-2; assay: Antiviral activity against SARS-CoV-2 assessed as inhibition of replication by qRT-PCR analysis; type: functional, organism-based; conditions: Severe acute respiratory syndrome coronavirus 2
[30] = molecular target: Stimulator of interferon genes protein (Homo sapiens) (UniProt Q86WV6); assay: Induction of oligomerization of STING in human HeLa cells transfected with wild type STING (unknown origin) assessed as intracellular puncta formation at 10 uM measured after 1 hr by DAPI staining based immunofluorescence microscopy; type: cell-based; conditions: filed as agonist
[31] = molecular target: Stimulator of interferon genes protein (Homo sapiens) (UniProt Q86WV6); assay: Agonist activity at STING in human HT-1080 cells assessed as increase in diABZI-induced TBK1 phosphorylation at 2.5 to 20 uM measured after 5 hrs by Western blot analysis; type: cell-based; conditions: filed as agonist, dose 2.5-20 µM
[32] = test system: RAW264.7; assay: Synergistic increase in […]-induced TBK1 phosphorylation in mouse RAW264.7 cells by Western blot analysis; type: functional, cell-based
[33] = test system: HT-1080; assay: Effect on TBK1 phosphorylation in STING - knockout human HT1080 cells at 20 uM measured after 5 hrs by Western blot analysis; type: functional, cell-based
[34] = test system: BMDM; assay: Effect on STING level in mouse BMDM cells at 2.5 to 20 uM incubated for 8 hrs by Western blot analysis; type: functional, cell-based; conditions: dose 2.5-20 µM
[35] = molecular target: Stimulator of interferon genes protein (Homo sapiens) (UniProt Q86WV6); assay: Induction of STING-dependent gene expression in human HT-1080 cells assessed as increase in […] induced IFNbeta mRNA expression at 20 uM incubated for 8 hrs by qRT-PCR analysis; type: cell-based; conditions: filed as agonist
[36] = molecular target: Stimulator of interferon genes protein (Homo sapiens) (UniProt Q86WV6); assay: Induction of STING-dependent gene expression in human HT-1080 cells assessed as TNFalpha mRNA expression at 20 uM incubated for 8 hrs by qRT-PCR analysis; type: cell-based; conditions: filed as agonist
[37] = test system: HT-1080; assay: Cytotoxicity against human HT-1080 cells assessed as cell viability measured after 72 hrs by MTT assay; type: functional, cell-based; conditions: HT-1080, 72 h
[38] = test system: Stimulator of interferon genes protein (Homo sapiens), Q86WV6 [C88S,C91S]; assay: Induction of oligomerization of STING C88S/C91S (unknown origin) double mutant in human HeLa cells transfected with wild type STING assessed as intracellular puncta formation at 10 uM measured after 1 hr by DAPI staining based immunofluorescence microscopy; type: cell-based; conditions: filed as agonist
[39] = molecular target: Stimulator of interferon genes protein (Homo sapiens) (UniProt Q86WV6); assay: Induction of STING-dependent gene expression in human THP1 cells assessed as IFNbeta mRNA expression at 2.5 to 20 uM incubated for 8 hrs by qRT-PCR analysis; type: cell-based; conditions: THP-1, filed as agonist, dose 2.5-20 µM
[40] = test system: Mus musculus; assay: Induction of immune-activation effect in wild type female BALB/c mouse assessed as increase in serum TNFalpha level at 15 to 30 mg/kg, ip measured after 24 to 48 hrs by ELISA relative to control; type: functional, organism-based; conditions: dose 15-30 mg/kg, time 24-48 hrs
[41] = molecular target: Stimulator of interferon genes protein (Homo sapiens) (UniProt Q86WV6); assay: Induction of STING-dependent gene expression in human THP1 cells assessed as TNFalpha mRNA expression at 2.5 to 20 uM incubated for 8 hrs by qRT-PCR analysis; type: cell-based; conditions: THP-1, filed as agonist, dose 2.5-20 µM
[42] = molecular target: Stimulator of interferon genes protein (Homo sapiens) (UniProt Q86WV6); assay: Agonist activity at STING in human HT-1080 cells assessed as increase in TBK1 phosphorylation at 20 uM measured after 5 hrs by Western blot analysis; type: cell-based; conditions: filed as agonist

Stimulator of interferon genes protein (Homo sapiens), sequence (Q86WV6 whole entry): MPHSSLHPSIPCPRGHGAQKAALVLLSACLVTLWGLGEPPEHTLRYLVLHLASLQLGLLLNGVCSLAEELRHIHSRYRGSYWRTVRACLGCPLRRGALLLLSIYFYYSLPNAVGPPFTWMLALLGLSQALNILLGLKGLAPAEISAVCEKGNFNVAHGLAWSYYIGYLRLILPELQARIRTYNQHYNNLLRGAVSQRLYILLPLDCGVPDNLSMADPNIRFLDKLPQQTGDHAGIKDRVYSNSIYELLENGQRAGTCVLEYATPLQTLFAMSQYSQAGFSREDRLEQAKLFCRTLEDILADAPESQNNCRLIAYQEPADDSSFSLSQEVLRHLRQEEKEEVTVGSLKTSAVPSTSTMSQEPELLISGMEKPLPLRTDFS
Stimulator of interferon genes protein (Homo sapiens), Q86WV6 [C148A], sequence (Q86WV6 whole entry C148A): as the sequence (Q86WV6 whole entry) above, with C148A counted along it
Stimulator of interferon genes protein (Homo sapiens), Q86WV6 [C88S,C91S], sequence (Q86WV6 whole entry C88S/C91S): as the sequence (Q86WV6 whole entry) above, with C88S, C91S counted along it
Stimulator of interferon genes protein (Homo sapiens), Q86WV6 [V113Q,G114Q,P115Q], sequence (Q86WV6 whole entry V113Q/G114Q/P115Q): as the sequence (Q86WV6 whole entry) above, with V113Q, G114Q, P115Q counted along it
Stimulator of interferon genes protein (Homo sapiens), Q86WV6 [C91S], sequence (Q86WV6 whole entry C91S): as the sequence (Q86WV6 whole entry) above, with C91S counted along it

O=C(NCCCCCNC(=O)c1ccc([N+](=O)[O-])o1)c1ccc([N+](=O)[O-])o1
Activity [1]: Active
Activity [2]: Active
Activity [3]: Active
Activity [4]: Active
Activity [5]: Active
IC50 [6]: 8.69 µM
Activity [7]: Active
Activity [8]: Active
Activity [9]: Active
Activity [10]: Active
Activity [11]: Active
Activity [12]: Active
IC50 [13]: 22.4 µM
Activity [14]: inactive
EC50 [15]: 6.8 µM
Activity [16]: Active
Activity [17]: Active
Activity [18]: Active
Activity [19]: Active
Activity [20]: Active
Activity [21]: Active
EC50 [22]: 6.15 µM
Activity [23]: Active
Activity [24]: Active
Activity [25]: inactive
Activity [26]: Active
IC50 [27]: 28.4 µM
Activity [28]: Active
EC50 [29]: 10.7 µM
Activity [30]: Active
Activity [31]: Active
Activity [32]: Active
Activity [33]: inactive
Activity [34]: inactive
Activity [35]: Active
Activity [36]: Active
IC50 [37]: 9.31 µM
Activity [38]: Active
Activity [39]: Active
Activity [40]: Active
Activity [41]: Active
Activity [42]: Active
